In ChEMBL document CHEMBL1201862, “PubChem BioAssay data set” (2004):
Active and inactive are the calls of the source.

Columns and labels:
[1] = target: T1, Mannose-6-phosphate isomerase (Homo sapiens, UniProt P34949); test: inhibitors of human PMI, primary screen, biochemical, fluorescence intensity, coupled assay (AID 1209)
T1 sequence (P34949 whole entry): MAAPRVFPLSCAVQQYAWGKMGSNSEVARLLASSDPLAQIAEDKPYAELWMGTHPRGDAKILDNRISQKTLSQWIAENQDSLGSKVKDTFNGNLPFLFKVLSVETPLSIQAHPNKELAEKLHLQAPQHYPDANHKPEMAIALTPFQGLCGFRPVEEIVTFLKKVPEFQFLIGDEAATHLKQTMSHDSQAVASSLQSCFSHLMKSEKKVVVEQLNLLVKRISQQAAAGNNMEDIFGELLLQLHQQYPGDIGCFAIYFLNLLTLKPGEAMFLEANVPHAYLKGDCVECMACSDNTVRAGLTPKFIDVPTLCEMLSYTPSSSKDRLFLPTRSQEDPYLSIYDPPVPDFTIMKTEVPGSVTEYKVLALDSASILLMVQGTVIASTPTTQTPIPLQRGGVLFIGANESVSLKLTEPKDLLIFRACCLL

[2] = target: T2, Sentrin-specific protease 8 (Homo sapiens, UniProt Q96LD8); test: SENP8 protease inhibitors, SAR follow-up, biochemical, luminescence (AID 504501); type: functional
T2 sequence (Q96LD8 whole entry): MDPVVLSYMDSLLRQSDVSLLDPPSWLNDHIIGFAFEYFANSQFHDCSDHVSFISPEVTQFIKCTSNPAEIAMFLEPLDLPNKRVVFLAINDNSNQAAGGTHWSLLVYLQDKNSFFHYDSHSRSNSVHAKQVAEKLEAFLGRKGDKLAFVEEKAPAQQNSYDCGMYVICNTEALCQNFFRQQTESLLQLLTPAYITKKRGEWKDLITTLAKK

[3] = target: T1, Mannose-6-phosphate isomerase; test: human PMI inhibitors, high substrate, primary screen, biochemical, fluorescence intensity, high mannose 6-phosphate (AID 1220)
[4] = target: T3, Sentrin-specific protease 7 (Homo sapiens, UniProt Q9BQF6); test: SENP7 protease inhibitors, SAR follow-up, biochemical, luminescence (AID 504497); type: functional
T3 sequence (Q9BQF6 whole entry): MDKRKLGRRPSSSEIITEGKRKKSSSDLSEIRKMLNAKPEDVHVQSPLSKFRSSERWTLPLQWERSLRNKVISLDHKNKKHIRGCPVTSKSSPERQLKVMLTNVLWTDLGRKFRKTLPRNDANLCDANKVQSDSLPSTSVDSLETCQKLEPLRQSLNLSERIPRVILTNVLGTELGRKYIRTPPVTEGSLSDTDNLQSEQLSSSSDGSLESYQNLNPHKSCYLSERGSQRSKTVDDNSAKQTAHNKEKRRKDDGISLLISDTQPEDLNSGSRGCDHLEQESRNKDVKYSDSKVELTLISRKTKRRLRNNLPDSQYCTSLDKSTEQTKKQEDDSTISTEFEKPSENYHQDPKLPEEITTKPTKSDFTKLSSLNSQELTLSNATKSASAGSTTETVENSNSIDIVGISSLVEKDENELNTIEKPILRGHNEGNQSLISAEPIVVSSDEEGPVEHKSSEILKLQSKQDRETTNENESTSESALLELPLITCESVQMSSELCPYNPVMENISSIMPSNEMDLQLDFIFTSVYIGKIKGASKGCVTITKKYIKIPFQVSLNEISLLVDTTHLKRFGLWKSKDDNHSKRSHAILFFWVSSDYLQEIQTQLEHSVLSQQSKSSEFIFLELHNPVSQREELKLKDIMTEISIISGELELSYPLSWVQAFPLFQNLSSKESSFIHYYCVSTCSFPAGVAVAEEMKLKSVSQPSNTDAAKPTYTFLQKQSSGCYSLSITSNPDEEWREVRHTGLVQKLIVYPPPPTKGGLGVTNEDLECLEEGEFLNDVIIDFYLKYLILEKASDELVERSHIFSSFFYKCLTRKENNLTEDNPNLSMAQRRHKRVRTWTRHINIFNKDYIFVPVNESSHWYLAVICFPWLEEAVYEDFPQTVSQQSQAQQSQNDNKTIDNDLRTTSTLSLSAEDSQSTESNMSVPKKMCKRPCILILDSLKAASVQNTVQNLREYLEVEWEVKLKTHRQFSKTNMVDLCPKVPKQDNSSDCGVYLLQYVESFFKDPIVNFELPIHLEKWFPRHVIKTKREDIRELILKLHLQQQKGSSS

Caspase-3 = target: T4, Caspase-3 (Homo sapiens, UniProt P42574); test: SAR Analysis of small molecule inhibitors of Sentrin-specific proteases (SENPs) using a Caspase-3 Selectivity assay. [Related pubchem assays (depositor defined):AID2540, AID2599, AID434973, AID489001]; type: functional
T4 sequence (P42574 whole entry): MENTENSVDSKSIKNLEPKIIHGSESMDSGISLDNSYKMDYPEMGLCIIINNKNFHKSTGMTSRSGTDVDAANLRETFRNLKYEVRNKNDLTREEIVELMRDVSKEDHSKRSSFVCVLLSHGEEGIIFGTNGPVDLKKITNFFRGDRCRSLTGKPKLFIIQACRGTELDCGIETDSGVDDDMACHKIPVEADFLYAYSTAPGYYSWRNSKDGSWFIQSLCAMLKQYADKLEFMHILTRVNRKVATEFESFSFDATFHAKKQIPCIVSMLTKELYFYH

[5] = target: T5, Sentrin-specific protease 6 (Homo sapiens, UniProt Q9GZR1); test: SAR Analysis of small molecule inhibitors of Sentrin-specific protease 6 (SENP6) using a Luminescent assay. [Related pubchem assays (depositor defined):AID2582, AID2599]; type: functional
T5 sequence (Q9GZR1 whole entry): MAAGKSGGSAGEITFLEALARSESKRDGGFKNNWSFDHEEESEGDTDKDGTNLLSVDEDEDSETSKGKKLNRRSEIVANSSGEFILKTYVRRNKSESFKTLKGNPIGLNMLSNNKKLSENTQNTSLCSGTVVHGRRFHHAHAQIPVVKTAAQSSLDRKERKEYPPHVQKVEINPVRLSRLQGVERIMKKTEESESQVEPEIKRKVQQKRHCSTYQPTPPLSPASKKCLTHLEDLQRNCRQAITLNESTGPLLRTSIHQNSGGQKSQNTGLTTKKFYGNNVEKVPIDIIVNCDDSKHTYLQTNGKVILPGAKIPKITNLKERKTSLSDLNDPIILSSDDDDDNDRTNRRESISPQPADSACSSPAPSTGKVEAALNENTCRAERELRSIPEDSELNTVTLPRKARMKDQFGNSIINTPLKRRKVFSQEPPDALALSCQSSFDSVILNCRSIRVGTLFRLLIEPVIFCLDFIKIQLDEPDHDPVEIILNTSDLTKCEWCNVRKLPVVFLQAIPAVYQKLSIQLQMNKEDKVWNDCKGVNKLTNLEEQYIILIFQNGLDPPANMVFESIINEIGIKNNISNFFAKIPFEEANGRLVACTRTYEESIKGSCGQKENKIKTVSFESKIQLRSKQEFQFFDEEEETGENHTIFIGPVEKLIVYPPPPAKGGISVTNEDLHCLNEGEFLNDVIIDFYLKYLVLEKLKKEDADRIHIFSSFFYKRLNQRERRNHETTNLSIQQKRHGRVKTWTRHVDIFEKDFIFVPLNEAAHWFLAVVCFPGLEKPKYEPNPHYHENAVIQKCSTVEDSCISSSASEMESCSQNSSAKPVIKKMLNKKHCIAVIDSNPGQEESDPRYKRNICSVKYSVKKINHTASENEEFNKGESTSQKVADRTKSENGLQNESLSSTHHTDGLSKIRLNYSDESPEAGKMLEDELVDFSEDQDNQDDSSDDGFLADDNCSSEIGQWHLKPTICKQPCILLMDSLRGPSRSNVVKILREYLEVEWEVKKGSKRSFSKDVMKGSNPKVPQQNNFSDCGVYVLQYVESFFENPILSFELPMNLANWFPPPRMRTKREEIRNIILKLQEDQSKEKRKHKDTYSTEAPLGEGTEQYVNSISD

[6] = cytotoxicity toward NIH3T3 fibroblasts, dose response, counter-screen, cell-based, ATP luminescence, mouse fibroblasts (AID 2010); type: functional;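 note: cells exposed to compound for about 90 hours before reading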
[7] = inhibitors of intracellular T. cruzi replication, confirmation, NIH3T3 host cells, beta-gal luminescence (AID 2044); type: functional, cell-based;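 note: intracellular parasites grown in NIH/3T3 mouse fibroblasts as host cells; luminescent beta-galactosidase reporter signal from transgenic T. cruzi replicating inside host cells; inhibitors lower the luminescence signal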
[8] = target: T6, Tyrosine-protein phosphatase non-receptor type 7 (Homo sapiens, UniProt P35236); test: inhibitors of human HePTP phosphatase, […], biochemical, absorbance, leukemia target (AID 521); type: functional
T6 sequence (P35236 whole entry): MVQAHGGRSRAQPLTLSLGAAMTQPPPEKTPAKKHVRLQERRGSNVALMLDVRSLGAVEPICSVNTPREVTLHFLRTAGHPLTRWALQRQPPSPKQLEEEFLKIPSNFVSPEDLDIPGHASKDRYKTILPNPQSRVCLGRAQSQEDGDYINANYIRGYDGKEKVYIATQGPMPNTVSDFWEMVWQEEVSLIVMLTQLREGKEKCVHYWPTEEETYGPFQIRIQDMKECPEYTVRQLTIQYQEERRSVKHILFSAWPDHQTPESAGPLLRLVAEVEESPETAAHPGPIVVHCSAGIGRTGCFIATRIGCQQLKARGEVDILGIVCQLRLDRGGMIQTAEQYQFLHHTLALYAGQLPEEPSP

Estrogen receptor beta [9] = target: T7, Estrogen receptor beta (Homo sapiens, UniProt Q92731); test: ERβ–SRC-3 coactivator interaction inhibitors, confirmation, orthogonal assay, biochemical, ELISA, streptavidin-HRP readout (AID 1060)
T7 sequence (Q92731 whole entry): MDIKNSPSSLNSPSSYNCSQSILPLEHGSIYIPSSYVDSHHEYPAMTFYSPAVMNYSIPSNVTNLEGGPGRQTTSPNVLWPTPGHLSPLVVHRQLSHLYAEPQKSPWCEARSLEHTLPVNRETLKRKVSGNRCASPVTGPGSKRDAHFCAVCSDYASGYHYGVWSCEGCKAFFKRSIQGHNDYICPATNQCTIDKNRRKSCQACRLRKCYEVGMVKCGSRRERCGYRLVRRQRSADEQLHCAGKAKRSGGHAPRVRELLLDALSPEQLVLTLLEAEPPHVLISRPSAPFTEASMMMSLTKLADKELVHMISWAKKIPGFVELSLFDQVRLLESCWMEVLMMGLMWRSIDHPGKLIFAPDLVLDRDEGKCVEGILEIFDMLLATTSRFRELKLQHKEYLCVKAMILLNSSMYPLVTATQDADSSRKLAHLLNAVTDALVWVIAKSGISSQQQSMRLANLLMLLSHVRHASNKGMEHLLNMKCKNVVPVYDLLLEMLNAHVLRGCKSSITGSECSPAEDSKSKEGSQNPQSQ

Estrogen receptor beta [10] = target: T7, Estrogen receptor beta
[11] = target: Peroxisome proliferator-activated receptor gamma/Nuclear receptor coactivator 2 (Homo sapiens, UniProt P37231); type: functional;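 note: agonist potency for raising coactivator recruitment to the receptor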
[12] = target: Peroxisome proliferator-activated receptor gamma/Nuclear receptor coactivator 1 (Homo sapiens, UniProt P37231); type: functional;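 note: agonist potency as compounds enhance coactivator SRC-1 recruitment to PPARgamma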
[13] = target: Peroxisome proliferator-activated receptor gamma/Nuclear receptor coactivator 3 (Homo sapiens, UniProt P37231); type: functional;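 note: agonist potency for raising coactivator recruitment to the receptor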
Chain of Peroxisome proliferator-activated receptor gamma/Nuclear receptor coactivator 3 (P37231 whole entry): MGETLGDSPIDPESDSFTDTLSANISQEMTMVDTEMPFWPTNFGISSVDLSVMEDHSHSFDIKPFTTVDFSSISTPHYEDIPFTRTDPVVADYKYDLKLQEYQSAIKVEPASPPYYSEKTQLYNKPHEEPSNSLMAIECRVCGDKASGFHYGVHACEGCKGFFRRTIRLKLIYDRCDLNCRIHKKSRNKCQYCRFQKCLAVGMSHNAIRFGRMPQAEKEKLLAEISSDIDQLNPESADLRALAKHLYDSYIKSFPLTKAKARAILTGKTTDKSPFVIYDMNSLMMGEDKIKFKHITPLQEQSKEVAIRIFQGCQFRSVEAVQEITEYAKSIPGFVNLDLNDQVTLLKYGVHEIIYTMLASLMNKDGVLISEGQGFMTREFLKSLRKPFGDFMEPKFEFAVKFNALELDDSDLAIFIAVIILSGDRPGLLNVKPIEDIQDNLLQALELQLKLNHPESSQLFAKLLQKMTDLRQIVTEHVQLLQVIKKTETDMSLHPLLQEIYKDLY
Chain of Peroxisome proliferator-activated receptor gamma/Nuclear receptor coactivator 3 (Q9Y6Q9 whole entry, further chain): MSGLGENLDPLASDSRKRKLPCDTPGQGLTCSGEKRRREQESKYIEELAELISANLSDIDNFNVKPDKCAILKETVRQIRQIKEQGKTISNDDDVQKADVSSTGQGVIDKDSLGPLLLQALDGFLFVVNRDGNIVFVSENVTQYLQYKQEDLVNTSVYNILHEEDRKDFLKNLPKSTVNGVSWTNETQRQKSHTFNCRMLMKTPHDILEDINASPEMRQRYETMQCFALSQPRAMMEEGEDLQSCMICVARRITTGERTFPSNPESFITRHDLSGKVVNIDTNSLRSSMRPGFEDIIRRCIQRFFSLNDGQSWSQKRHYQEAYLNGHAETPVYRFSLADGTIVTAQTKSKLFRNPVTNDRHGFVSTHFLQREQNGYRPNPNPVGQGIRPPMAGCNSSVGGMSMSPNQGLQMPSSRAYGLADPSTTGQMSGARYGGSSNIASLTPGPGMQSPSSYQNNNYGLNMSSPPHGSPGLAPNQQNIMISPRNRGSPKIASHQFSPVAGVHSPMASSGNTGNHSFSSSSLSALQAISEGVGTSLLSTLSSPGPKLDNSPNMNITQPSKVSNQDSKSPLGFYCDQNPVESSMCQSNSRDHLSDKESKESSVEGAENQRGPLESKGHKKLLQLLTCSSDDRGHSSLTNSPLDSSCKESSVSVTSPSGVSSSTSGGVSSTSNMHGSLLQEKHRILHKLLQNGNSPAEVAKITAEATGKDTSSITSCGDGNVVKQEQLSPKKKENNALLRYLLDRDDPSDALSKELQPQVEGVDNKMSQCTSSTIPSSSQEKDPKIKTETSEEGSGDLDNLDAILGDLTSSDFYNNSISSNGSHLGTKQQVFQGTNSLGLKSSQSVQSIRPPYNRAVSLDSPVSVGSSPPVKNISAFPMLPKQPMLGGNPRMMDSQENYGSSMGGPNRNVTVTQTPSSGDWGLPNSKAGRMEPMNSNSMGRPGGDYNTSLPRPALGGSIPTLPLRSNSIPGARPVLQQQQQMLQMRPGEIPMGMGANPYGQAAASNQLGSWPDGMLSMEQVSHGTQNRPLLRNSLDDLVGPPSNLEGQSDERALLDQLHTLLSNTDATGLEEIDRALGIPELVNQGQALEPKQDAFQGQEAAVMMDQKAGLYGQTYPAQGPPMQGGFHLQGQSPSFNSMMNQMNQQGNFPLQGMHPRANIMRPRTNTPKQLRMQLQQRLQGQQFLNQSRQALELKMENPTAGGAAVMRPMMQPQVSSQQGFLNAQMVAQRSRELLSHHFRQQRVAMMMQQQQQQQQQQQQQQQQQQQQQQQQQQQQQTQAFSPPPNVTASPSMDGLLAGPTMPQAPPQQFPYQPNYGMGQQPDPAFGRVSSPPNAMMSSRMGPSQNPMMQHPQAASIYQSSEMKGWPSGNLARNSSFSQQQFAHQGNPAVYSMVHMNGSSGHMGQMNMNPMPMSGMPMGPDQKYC

[14] = test system: Streptococcus sp. 'group A'; test: growth inhibition of control SK(-) GAS strain, dose response, counter-screen for streptokinase expression inhibitor project, luminescence, kanamycin, BacTiterGlo, confirmation (AID 1900); type: functional, organism-based
[15] = target: 26S proteasome non-ATPase regulatory subunit 14 (Homo sapiens, UniProt O00487); test: inhibition of proteasome subunit RPN11 – biochemical, fluorescence polarization, uHTS hits, confirmation (AID 602368); type: functional
Chain of 26S proteasome non-ATPase regulatory subunit 14 (O00487 whole entry): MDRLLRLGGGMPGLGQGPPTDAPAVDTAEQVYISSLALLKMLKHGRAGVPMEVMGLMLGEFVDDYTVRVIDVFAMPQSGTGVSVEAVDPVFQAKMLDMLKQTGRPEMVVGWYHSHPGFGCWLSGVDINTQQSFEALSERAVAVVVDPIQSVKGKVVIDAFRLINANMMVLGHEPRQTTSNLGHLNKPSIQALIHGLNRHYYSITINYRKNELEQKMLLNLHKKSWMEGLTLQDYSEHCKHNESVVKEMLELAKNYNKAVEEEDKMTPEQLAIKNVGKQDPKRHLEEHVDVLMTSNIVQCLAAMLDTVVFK

[16] = target: 72 kDa type IV collagenase (Homo sapiens, UniProt P08253); test: Dose Response validation of uHTS RPN11 inhibitor hits using a MMP-2 Fluorescence assay.; type: functional
Chain of 72 kDa type IV collagenase (P08253 whole entry): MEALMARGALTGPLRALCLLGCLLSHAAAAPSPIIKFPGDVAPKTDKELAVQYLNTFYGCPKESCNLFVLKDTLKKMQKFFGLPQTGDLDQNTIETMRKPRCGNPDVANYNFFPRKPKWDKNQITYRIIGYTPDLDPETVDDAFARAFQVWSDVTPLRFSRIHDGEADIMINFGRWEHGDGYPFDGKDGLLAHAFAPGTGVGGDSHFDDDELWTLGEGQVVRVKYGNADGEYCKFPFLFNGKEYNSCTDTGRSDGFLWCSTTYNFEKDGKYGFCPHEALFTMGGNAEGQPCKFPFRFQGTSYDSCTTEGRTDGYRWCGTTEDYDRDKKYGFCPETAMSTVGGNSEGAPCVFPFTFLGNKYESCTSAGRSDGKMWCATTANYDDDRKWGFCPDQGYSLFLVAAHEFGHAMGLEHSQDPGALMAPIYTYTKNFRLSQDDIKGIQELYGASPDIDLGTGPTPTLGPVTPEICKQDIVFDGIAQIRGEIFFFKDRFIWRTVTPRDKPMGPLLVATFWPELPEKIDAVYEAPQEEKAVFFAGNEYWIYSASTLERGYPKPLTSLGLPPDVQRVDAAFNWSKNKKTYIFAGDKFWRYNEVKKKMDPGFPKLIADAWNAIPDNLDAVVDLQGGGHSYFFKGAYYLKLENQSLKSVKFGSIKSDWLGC

Streptococcus = test: Group A Streptococcus viability loss, dose response, counter-screen for streptokinase expression inhibitor project, luminescence, BacTiterGlo (AID 1915); type: functional, organism-based;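 note: potency for reduction of bacterial viability or growth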
Streptokinase A = target: T8, Streptokinase A (Streptococcus pyogenes serotype M1, UniProt P10520); test: S. pyogenes streptokinase expression inhibitors, potency, dose response, plasminogen activation absorbance, OD405 (AID 1914); type: functional, Streptococcus pyogenes M1 GAS;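 note: secreted streptokinase activity via plasminogen activation per viability signal from cell pellet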
T8 sequence (P10520 whole entry): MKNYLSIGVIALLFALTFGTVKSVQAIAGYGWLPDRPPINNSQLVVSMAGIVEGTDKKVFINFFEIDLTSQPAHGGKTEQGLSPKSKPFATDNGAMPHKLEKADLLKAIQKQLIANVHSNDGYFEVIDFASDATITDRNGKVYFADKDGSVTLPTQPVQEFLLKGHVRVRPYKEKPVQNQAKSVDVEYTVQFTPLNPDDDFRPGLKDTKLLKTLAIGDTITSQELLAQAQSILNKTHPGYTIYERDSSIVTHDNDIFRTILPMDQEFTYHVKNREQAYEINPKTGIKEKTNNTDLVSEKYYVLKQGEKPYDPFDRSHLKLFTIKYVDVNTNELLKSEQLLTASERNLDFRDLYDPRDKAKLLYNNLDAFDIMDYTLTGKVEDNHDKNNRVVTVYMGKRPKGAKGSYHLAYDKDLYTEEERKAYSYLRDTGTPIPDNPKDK

Prothrombin [17] = target: Prothrombin (Bos taurus, UniProt P00735); test: thrombin inhibition, dose response, biochemical, fluorescence polarization, uHTS hits (AID 602369); type: functional
Prothrombin [18] = target: Prothrombin (Homo sapiens, UniProt P00734); test: Thrombin 1536 HTS Dose Response Confirmation. [Related pubchem assays: 1046 (Thrombin 1536 HTS; hits were confirmed in this assay)]; type: functional

Compound: Oc1cccc(/C=N/Nc2cc(N3CCOCC3)nc(N3CCOCC3)n2)c1
- IC50 [1]: > 50 µM (not active)
- IC50 [2]: > 99 µM (inactive)
- IC50 [3]: > 50 µM (not active)
- IC50 [4]: 80.5 µM (active)
- IC50 (Caspase-3): > 99 µM (inactive)
- IC50 [5]: 89.1 µM (active)

Compound: CC(Oc1ccc(Br)cc1)C(=O)Nc1ccc(S(=O)(=O)N(C)C2CCN(C)CC2)cc1 (stereo not given)
- EC50 [6]: 8.64 µM (active)
- EC50 (cells): 0.073 µM (active)
- EC50 [7]: < 0.1 µM (active)

Compound: NS(=O)(=O)c1cc2c(cc1C(F)(F)F)NCNS2(=O)=O [HYDROFLUMETHIAZIDE]
- IC50 [8]: > 100 µM (not active)

Compound: c1csc(Cc2nn3c(-c4n[nH]c5c4CCC5)nnc3s2)c1
- IC50 (Estrogen receptor beta [9]): > 50 µM (not active)
- IC50 (Estrogen receptor beta [10]): > 50 µM (not active)
- EC50 [11]: > 79.4 µM (not active)
- EC50 [12]: > 79.4 µM (not active)
- EC50 [13]: > 79.4 µM (not active)

Compound: COc1ccc2nc3c(O)n(/N=C/c4ccc(OC)c(CN5CCCC5)c4)c(C)nc-3c2c1
- EC50 [14]: 17.8 µM (active)
- EC50 [6]: > 60 µM (not active)
- IC50 [15]: 13 µM (active)
- IC50 [16]: > 100 µM (inactive)
- EC50 (Streptococcus): > 150 µM (not active)
- EC50 (cells): 0.336 µM (active)
- EC50 (Streptokinase A): 32.3 µM (active)
- IC50 (Prothrombin [17]): 87.9 µM (active)
- EC50 [7]: < 0.1 µM (active)

Compound: Cn1cc(C(=O)NCc2cccs2)c(=O)c2cc(S(=O)(=O)N3CCCC3)ccc21
- IC50 (Prothrombin [18]): 0.691 µM (active)
